Measurements reported in PubChem BioAssay AID2060619 (Molecular Pharmacology Branch, DTP, NCI, 2025).

Tested on: 323965-272-R-J2-PDC complex spheroid viability
Assay: Anticancer human tumor 323965-272-R-J2-PDC patient-derived pancreatic carcinoma cell line growth inhibition [CLK]
Details: for IC50: curve of first compound; for viability, T/C: stronger effect = lower value; active means viability on the fitted dose curve at most 10% of control; inactive means the rest
Procedure, shortened: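 Multi-cell-type spheroids combined patient-derived tumor cells with HUVEC endothelial cells and human mesenchymal stem cells. Paired agents were dosed in half-log steps down from about clinical Cmax, or from 10 microM where Cmax was unknown.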
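Further: spheroids exposed to agents for seven days before readout.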
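Wherever viability, T/C is given: percent of DMSO vehicle control wells so 100% = untreated growth.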

CC(C)CC(NC(=O)C(Cc1ccccc1)NC(=O)c1cnccn1)B(O)O (centres undefined) + CNC(=O)c1ccc(Nc2nc(OC3CCCC3)c3c(-c4ccc5nc(C)oc5c4)c[nH]c3n2)c(OC)c1
inactive: viability, T/C (second compound 0.0316 µM, first compound 0.000949 µM) 144% | viability, T/C (second compound 0.0316 µM, first compound 0.003 µM) 57.1% | viability, T/C (second compound 0.1 µM, first compound 0.000949 µM) 97.1% | viability, T/C (second compound 0.1 µM, first compound 0.003 µM) 62.7% | viability, T/C (second compound 0.316 µM, first compound 0.000949 µM) 77.6% | viability, T/C (second compound 0.316 µM, first compound 0.003 µM) 51.5% | viability, T/C (second compound 1 µM, first compound 0.000949 µM) 62.9% | viability, T/C (second compound 1 µM, first compound 0.003 µM) 38% | viability, T/C (second compound 3.16 µM, first compound 0.000949 µM) 48.7% | viability, T/C (second compound 3.16 µM, first compound 0.003 µM) 28.7% | viability, T/C (second compound 10 µM, first compound 0.000949 µM) 51.6% | viability, T/C (second compound 10 µM, first compound 0.003 µM) 24.5%
1.02 nM: IC50 (second compound 10 µM)
3.5 nM: IC50 (second compound 0.0316 µM)
3.11 nM: IC50 (second compound 0.316 µM)
active: viability, T/C (second compound 0.0316 µM, first compound 0.00949 µM) 3.74% | viability, T/C (second compound 0.0316 µM, first compound 0.03 µM) 0.63% | viability, T/C (second compound 0.0316 µM, first compound 0.0949 µM) 0.4% | viability, T/C (second compound 0.0316 µM, first compound 0.3 µM) 1.5% | viability, T/C (second compound 0.1 µM, first compound 0.00949 µM) 3.57% | viability, T/C (second compound 0.1 µM, first compound 0.03 µM) 0.66% | viability, T/C (second compound 0.1 µM, first compound 0.0949 µM) 0.72% | viability, T/C (second compound 0.1 µM, first compound 0.3 µM) 3.02% | viability, T/C (second compound 0.316 µM, first compound 0.00949 µM) 3.56% | viability, T/C (second compound 0.316 µM, first compound 0.03 µM) 0.65% | viability, T/C (second compound 0.316 µM, first compound 0.0949 µM) 0.61% | viability, T/C (second compound 0.316 µM, first compound 0.3 µM) 0.43% | viability, T/C (second compound 1 µM, first compound 0.00949 µM) 3.86% | viability, T/C (second compound 1 µM, first compound 0.03 µM) 0.86% | viability, T/C (second compound 1 µM, first compound 0.0949 µM) 1.19% | viability, T/C (second compound 1 µM, first compound 0.3 µM) 1.58% | viability, T/C (second compound 3.16 µM, first compound 0.00949 µM) 1.87% | viability, T/C (second compound 3.16 µM, first compound 0.03 µM) 0.28% | viability, T/C (second compound 3.16 µM, first compound 0.0949 µM) 0.73% | viability, T/C (second compound 3.16 µM, first compound 0.3 µM) 1.18% | viability, T/C (second compound 10 µM, first compound 0.00949 µM) 1.13% | viability, T/C (second compound 10 µM, first compound 0.03 µM) 0.33% | viability, T/C (second compound 10 µM, first compound 0.0949 µM) 0.86% | viability, T/C (second compound 10 µM, first compound 0.3 µM) 2.07%
3.84 nM: IC50 (second compound 0.1 µM)
< 0.949 nM: IC50 (second compound 3.16 µM)
1.72 nM: IC50 (second compound 1 µM)

CC1(C)CCC(CN2CCN(c3ccc(C(=O)NS(=O)(=O)c4ccc(NCC5CCOCC5)c([N+](=O)[O-])c4)c(Oc4cnc5[nH]ccc5c4)c3)CC2)=C(c2ccc(Cl)cc2)C1 + CNC(=O)c1ccc(Nc2nc(OC3CCCC3)c3c(-c4ccc5nc(C)oc5c4)c[nH]c3n2)c(OC)c1
active: viability, T/C (second compound 0.0316 µM, first compound 10 µM) 8.02% | viability, T/C (second compound 0.1 µM, first compound 10 µM) 7.13% | viability, T/C (second compound 0.316 µM, first compound 10 µM) 7.29% | viability, T/C (second compound 1 µM, first compound 10 µM) 7.06%
inactive: viability, T/C (second compound 0.0316 µM, first compound 0.0316 µM) 102% | viability, T/C (second compound 0.0316 µM, first compound 0.1 µM) 93.4% | viability, T/C (second compound 0.0316 µM, first compound 0.316 µM) 98.7% | viability, T/C (second compound 0.0316 µM, first compound 1 µM) 93% | viability, T/C (second compound 0.0316 µM, first compound 3.16 µM) 89.9% | viability, T/C (second compound 0.1 µM, first compound 0.0316 µM) 87.4% | viability, T/C (second compound 0.1 µM, first compound 0.1 µM) 94.4% | viability, T/C (second compound 0.1 µM, first compound 0.316 µM) 78.8% | viability, T/C (second compound 0.1 µM, first compound 1 µM) 80.2% | viability, T/C (second compound 0.1 µM, first compound 3.16 µM) 65.6% | viability, T/C (second compound 0.316 µM, first compound 0.0316 µM) 67.7% | viability, T/C (second compound 0.316 µM, first compound 0.1 µM) 69% | viability, T/C (second compound 0.316 µM, first compound 0.316 µM) 64.7% | viability, T/C (second compound 0.316 µM, first compound 1 µM) 58.7% | viability, T/C (second compound 0.316 µM, first compound 3.16 µM) 47.3% | viability, T/C (second compound 1 µM, first compound 0.0316 µM) 44.1% | viability, T/C (second compound 1 µM, first compound 0.1 µM) 45.9% | viability, T/C (second compound 1 µM, first compound 0.316 µM) 45.2% | viability, T/C (second compound 1 µM, first compound 1 µM) 42% | viability, T/C (second compound 1 µM, first compound 3.16 µM) 36.1% | viability, T/C (second compound 3.16 µM, first compound 0.0316 µM) 39.5% | viability, T/C (second compound 3.16 µM, first compound 0.1 µM) 41.8% | viability, T/C (second compound 3.16 µM, first compound 0.316 µM) 43.5% | viability, T/C (second compound 3.16 µM, first compound 1 µM) 36.1% | viability, T/C (second compound 3.16 µM, first compound 3.16 µM) 37% | viability, T/C (second compound 3.16 µM, first compound 10 µM) 7.39% | viability, T/C (second compound 10 µM, first compound 0.0316 µM) 36.7% | viability, T/C (second compound 10 µM, first compound 0.1 µM) 36.2% | viability, T/C (second compound 10 µM, first compound 0.316 µM) 41.5% | viability, T/C (second compound 10 µM, first compound 1 µM) 33.7% | viability, T/C (second compound 10 µM, first compound 3.16 µM) 32.6% | viability, T/C (second compound 10 µM, first compound 10 µM) 8.69%
5550 nM: IC50 (second compound 0.0316 µM)
4210 nM: IC50 (second compound 0.1 µM)
< 31.6 nM: IC50 (second compound 1 µM) | IC50 (second compound 3.16 µM) | IC50 (second compound 10 µM)
2300 nM: IC50 (second compound 0.316 µM)
